Assay results published in the NIST ThermoML archive (doi:10.1021/je700072a).

Experiments:
[1] = Crystal; visual observation
[2] = molar heat capacity at constant pressure; conditions: 101.33 kPa, Crystal

NC[C@H]1CC[C@H](C(=O)O)CC1 [trans-4-(aminomethyl)cyclohexanecarboxylic acid]
Conditions	Normal melting temperature [°C]
[1]	249.00

[2]
Conditions	molar heat capacity at constant pressure [J/K/mol]
82.12 K	74.7
86.25 K	76.89
90.28 K	79.76
94.31 K	82.4
98.35 K	85
102.41 K	87.81
106.49 K	90.49
110.6 K	93.05
114.62 K	95.54
118.68 K	98.24
122.78 K	100.67
126.81 K	103.29
130.9 K	105.64
135.04 K	107.88
139.12 K	109.84
143.27 K	111.62
147.47 K	113.47
151.62 K	115.25
155.73 K	116.97
159.91 K	118.97
164.15 K	120.5
168.36 K	122.02
172.53 K	123.18
176.78 K	124.4
181.09 K	125.84
185.38 K	127.19
189.63 K	128.43
193.83 K	129.9
198.09 K	130.84
202.43 K	132.24
206.76 K	133.38
211.06 K	134.92
215.33 K	136.11
219.57 K	138
223.88 K	139.22
228.26 K	141.19
232.59 K	143.17
236.84 K	145.38
240.99 K	147.84
245.16 K	149.97
249.36 K	153.29
253.5 K	156.23
257.64 K	159.56
261.72 K	162.66
265.9 K	166
270.14 K	168.94
274.32 K	172.81
278.44 K	176.02
282.51 K	180.3
286.62 K	184.12
290.75 K	187.46
294.85 K	190.4
298.94 K	194.15
303.01 K	197.05
307.17 K	200.02
311.37 K	202.88
315.53 K	205.54
319.67 K	209.32
323.79 K	212.66
327.88 K	215.68
331.96 K	219.46
336.09 K	222.93
340.27 K	226.39
344.44 K	229.61
348.6 K	233.13
352.73 K	236.69
356.85 K	239.65
360.96 K	242.26
365.13 K	245.3
369.37 K	248.57
373.63 K	252.41
377.94 K	254.98
